Laboratory results: US20170368082A1, “FORMULATIONS OF BRINCIDOFOVIR” (priority 2016, published 2017)

Assay: Stability and confirmation analysis of stock and dose formulations
Assay type: physicochemical
Method: Brincidofovir injectable liquid stock formulation was prepared to 15 mg/mL brincidofovir, compounded from stock solutions inclusive of three (3) steps: (1) 2× sodium phosphate buffer solution (400 mM, pH=8.0) was prepared; (2) 1.0 N sodium hydroxide solution was purchased; brincidofovir injectable liquid stock formulation (15 mg/mL brincidofovir, 200 mM sodium phosphate, pH=8.0) from solid brincidofovir, 1.0 N sodium hydroxide solution, 2× sodium phosphate buffer solution and WFI (water for injection) was prepared.
The brincidofovir injectable liquid stock formulation is stable for 28 days under refrigerated conditions (2 to 8° C.). Brincidofovir injectable liquid stock formulation was diluted with 5% dextrose to yield the desired dose concentration.
The brincidofovir stock solution of 15.0 mg/mL was stable for 24 hours when stored at room temperature (nominally 20° C.) and for 8, 14 and 28 days when stored at 2 to 8° C.
Two samples (5 mL each) were taken on the day of preparation from the middle region of each dosing formulation (including control) prepared for each week. One sample was analyzed, in duplicate, for dose confirmation analysis and one sample was retained refrigerated (2 to 8° C.) (Due to initial results outside the study acceptance plan criteria (±10% of nominal), the Group 2 retained samples were re-analyzed for Weeks 1 and 2).
Analysis of preliminary mixes confirmed that the test item was stable in the vehicle for at least 24 hours at room temperature (nominally 20° C.) and for at least 8 days at 2 to 8° C. (under storage conditions used in this study). Analyses conducted during the treatment period confirmed that with the exception of the Day 1, 1 mg/mL (Group 2) formulation, dose solutions of appropriate concentration were administered. The Day 1, 1 mg/mL dose solution was 86.7% of nominal. Without wishing to be bound by theory, it was concluded that due to interactions at the meniscus, the volume collected for dose formulation analysis may have lowered the analysis results. The volume collected for analysis was increased for subsequent weekly preparations and confirmed to be of appropriate concentration.

CCCCCCCCCCCCCCCCOCCCOP(=O)(O)CO[C@H](CO)Cn1ccc(N)nc1=O [Brincidofovir]
Stable for (refrigerated) (0.05 mg/mL and 2.0 mg/mL, 2 to 8 °C): at least 8 days | Stable for (room temperature) (0.05 mg/mL and 2.0 mg/mL, room temperature): at least 24 hours | ANALYTICAL CONCENTRATION (% of Nominal) (dose formulation Day 1, Group 2, nominal 1 (ppm) OR (mg/mL)): 86.7 % of Nominal | ANALYTICAL CONCENTRATION (% of Nominal) (dose formulation Day 1, Group 2 Back-up, nominal 1 (ppm) OR (mg/mL)): 76.9 % of Nominal | ANALYTICAL CONCENTRATION (% of Nominal) (dose formulation Day 1, Group 2 Repeat Preparation, nominal 1 (ppm) OR (mg/mL)): 75.5 % of Nominal | ANALYTICAL CONCENTRATION (% of Nominal) (dose formulation Day 1, Group 3, nominal 4 (ppm) OR (mg/mL)): 95.7 % of Nominal | ANALYTICAL CONCENTRATION (% of Nominal) (dose formulation Day 1, Group 4, nominal 15 (ppm) OR (mg/mL)): 100.7 % of Nominal | ANALYTICAL CONCENTRATION (% of Nominal) (dose formulation Week 2, Group 2, nominal 1 (ppm) OR (mg/mL)): 90.1 % of Nominal | ANALYTICAL CONCENTRATION (% of Nominal) (dose formulation Week 2, Group 2 Back-up, nominal 1 (ppm) OR (mg/mL)): 86.8 % of Nominal | ANALYTICAL CONCENTRATION (% of Nominal) (dose formulation Week 2, Group 3, nominal 4 (ppm) OR (mg/mL)): 95.4 % of Nominal | ANALYTICAL CONCENTRATION (% of Nominal) (dose formulation Week 2, Group 4, nominal 15 (ppm) OR (mg/mL)): 102.9 % of Nominal | ANALYTICAL CONCENTRATION (% of Nominal) (dose formulation Week 3, Group 2, nominal 1 (ppm) OR (mg/mL)): 93.2 % of Nominal | ANALYTICAL CONCENTRATION (% of Nominal) (dose formulation Week 3, Group 3, nominal 4 (ppm) OR (mg/mL)): 94.8 % of Nominal | ANALYTICAL CONCENTRATION (% of Nominal) (dose formulation Week 3, Group 4, nominal 15 (ppm) OR (mg/mL)): 100.2 % of Nominal | ANALYTICAL CONCENTRATION (% of Nominal) (dose formulation Week 4, Group 2, nominal 1 (ppm) OR (mg/mL)): 92.8 % of Nominal | ANALYTICAL CONCENTRATION (% of Nominal) (dose formulation Week 4, Group 3, nominal 4 (ppm) OR (mg/mL)): 96.9 % of Nominal | ANALYTICAL CONCENTRATION (% of Nominal) (dose formulation Week 4, Group 4, nominal 15 (ppm) OR (mg/mL)): 101.0 % of Nominal | ANALYTICAL CONCENTRATION (% of Nominal) (dose formulation Week 5, Group 2, nominal 1 (ppm) OR (mg/mL)): 94.9 % of Nominal | ANALYTICAL CONCENTRATION (% of Nominal) (dose formulation Week 5, Group 3, nominal 4 (ppm) OR (mg/mL)): 97.7 % of Nominal | ANALYTICAL CONCENTRATION (% of Nominal) (dose formulation Week 5, Group 4, nominal 15 (ppm) OR (mg/mL)): 101.1 % of Nominal
